Results from BindingDB's records for doi:10.1073/pnas.182234399 (Case Western Reserve University, 2002).

Columns and labels:
D(3) dopamine receptor = D(3) dopamine receptor (Homo sapiens, UniProt P35462)
[1] = biological target: 5-hydroxytryptamine receptor 1A (Homo sapiens, UniProt P08908)
[2] = biological target: 5-hydroxytryptamine receptor 6 (Homo sapiens, UniProt P50406)
[3] = biological target: 5-hydroxytryptamine receptor 2A (Rattus norvegicus, UniProt P14842)
Histamine H1 receptor = Histamine H1 receptor (Homo sapiens, UniProt P35367)
[4] = biological target: 5-hydroxytryptamine receptor 1B (Homo sapiens, UniProt P28222)
[5] = biological target: 5-hydroxytryptamine receptor 1D (Homo sapiens, UniProt P28221)
[6] = biological target: 5-hydroxytryptamine receptor 2B (Homo sapiens, UniProt P41595)
Chain of 5-hydroxytryptamine receptor 2B (P41595 whole entry): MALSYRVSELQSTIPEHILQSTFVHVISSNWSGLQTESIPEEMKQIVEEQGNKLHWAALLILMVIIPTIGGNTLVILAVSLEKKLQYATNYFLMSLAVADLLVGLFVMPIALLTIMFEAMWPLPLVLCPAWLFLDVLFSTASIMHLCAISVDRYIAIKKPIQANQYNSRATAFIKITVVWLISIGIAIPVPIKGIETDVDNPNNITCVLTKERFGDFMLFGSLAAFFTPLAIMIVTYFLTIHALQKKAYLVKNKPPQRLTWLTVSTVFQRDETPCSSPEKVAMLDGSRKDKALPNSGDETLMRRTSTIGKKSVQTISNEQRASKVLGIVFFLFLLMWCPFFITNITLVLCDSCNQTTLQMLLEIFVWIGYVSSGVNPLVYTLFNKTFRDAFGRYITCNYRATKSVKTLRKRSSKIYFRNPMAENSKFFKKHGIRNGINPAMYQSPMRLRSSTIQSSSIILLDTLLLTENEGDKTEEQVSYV

[7] = biological target: 5-hydroxytryptamine receptor 7 (Homo sapiens, UniProt P34969)
Chain of 5-hydroxytryptamine receptor 7 (P34969 whole entry): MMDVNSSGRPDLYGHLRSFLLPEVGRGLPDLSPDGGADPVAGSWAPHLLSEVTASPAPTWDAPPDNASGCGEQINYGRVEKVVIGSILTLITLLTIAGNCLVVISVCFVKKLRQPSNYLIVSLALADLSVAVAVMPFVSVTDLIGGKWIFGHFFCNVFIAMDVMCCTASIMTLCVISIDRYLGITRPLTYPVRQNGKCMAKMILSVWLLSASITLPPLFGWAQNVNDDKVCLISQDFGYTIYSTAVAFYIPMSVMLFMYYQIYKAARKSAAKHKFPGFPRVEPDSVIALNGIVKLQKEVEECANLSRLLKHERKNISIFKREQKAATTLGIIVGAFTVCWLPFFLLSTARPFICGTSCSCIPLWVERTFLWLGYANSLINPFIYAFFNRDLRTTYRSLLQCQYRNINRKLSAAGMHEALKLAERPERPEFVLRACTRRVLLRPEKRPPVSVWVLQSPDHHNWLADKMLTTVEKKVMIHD

[8] = biological target: 5-hydroxytryptamine receptor 1E (Homo sapiens, UniProt P28566)
[9] = biological target: Neuronal acetylcholine receptor subunit alpha-4 (Homo sapiens, UniProt P43681)
[10] = biological target: Neuronal acetylcholine receptor subunit alpha-4 (Rattus norvegicus, UniProt P09483)
[11] = biological target: 5-hydroxytryptamine receptor 3A (Homo sapiens, UniProt P46098)
[12] = biological target: Beta-1 adrenergic receptor (Rattus norvegicus, UniProt P18090)
[13] = biological target: Muscarinic acetylcholine receptor M3 (Homo sapiens, UniProt P20309)
[14] = biological target: Metabotropic glutamate receptor 5 (Homo sapiens, UniProt P41594)
Chain of Metabotropic glutamate receptor 5 (P41594 whole entry): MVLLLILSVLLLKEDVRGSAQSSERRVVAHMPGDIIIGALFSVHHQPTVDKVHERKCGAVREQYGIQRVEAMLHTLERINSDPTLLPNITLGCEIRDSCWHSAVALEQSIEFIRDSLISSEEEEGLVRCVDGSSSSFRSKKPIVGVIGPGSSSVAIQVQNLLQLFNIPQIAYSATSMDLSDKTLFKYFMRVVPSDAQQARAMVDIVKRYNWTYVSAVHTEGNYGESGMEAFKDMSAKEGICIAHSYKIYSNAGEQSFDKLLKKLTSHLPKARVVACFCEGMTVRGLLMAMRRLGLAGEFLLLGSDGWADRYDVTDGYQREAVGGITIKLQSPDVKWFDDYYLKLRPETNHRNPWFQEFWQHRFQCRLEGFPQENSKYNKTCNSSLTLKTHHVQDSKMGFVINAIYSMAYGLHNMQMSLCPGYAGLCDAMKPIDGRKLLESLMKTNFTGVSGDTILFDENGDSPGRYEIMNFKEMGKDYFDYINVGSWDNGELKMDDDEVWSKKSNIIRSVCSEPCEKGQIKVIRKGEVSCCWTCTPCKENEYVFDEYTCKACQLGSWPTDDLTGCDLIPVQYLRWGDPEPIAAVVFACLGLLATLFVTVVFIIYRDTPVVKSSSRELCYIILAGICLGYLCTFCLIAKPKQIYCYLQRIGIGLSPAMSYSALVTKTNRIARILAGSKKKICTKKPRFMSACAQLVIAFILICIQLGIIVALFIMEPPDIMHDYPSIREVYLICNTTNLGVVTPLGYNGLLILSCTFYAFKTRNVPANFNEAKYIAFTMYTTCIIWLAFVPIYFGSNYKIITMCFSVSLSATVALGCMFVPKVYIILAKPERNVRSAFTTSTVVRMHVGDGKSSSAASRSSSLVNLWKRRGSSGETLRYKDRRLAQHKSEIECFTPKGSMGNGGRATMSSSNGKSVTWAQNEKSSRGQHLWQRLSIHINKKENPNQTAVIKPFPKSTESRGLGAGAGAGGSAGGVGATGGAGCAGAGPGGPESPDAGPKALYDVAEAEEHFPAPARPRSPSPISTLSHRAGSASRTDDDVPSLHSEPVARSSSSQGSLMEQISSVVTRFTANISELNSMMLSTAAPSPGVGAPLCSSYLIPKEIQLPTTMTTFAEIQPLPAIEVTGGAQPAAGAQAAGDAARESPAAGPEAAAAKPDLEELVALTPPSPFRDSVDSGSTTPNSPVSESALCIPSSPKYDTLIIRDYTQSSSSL

D(2) dopamine receptor = D(2) dopamine receptor (Homo sapiens, UniProt P14416)
Chain of D(2) dopamine receptor (P14416 whole entry): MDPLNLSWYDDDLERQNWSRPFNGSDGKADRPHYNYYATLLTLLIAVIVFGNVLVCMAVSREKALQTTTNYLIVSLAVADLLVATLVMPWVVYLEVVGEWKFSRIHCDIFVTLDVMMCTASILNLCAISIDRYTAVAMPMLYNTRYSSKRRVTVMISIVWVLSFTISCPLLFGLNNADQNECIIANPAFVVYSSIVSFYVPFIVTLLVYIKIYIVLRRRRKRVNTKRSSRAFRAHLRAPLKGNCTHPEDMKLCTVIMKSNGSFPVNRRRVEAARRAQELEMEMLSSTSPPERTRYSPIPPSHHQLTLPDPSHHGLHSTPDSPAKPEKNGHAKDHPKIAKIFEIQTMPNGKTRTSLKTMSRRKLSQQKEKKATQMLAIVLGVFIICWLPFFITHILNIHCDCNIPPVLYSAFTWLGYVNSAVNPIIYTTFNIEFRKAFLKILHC

[15] = biological target: Alpha-1A adrenergic receptor (Homo sapiens, UniProt P35348)
D(1A) dopamine receptor = D(1A) dopamine receptor (Homo sapiens, UniProt P21728)
[16] = biological target: 5-hydroxytryptamine receptor 5A (Homo sapiens, UniProt P47898)
[17] = biological target: 5-hydroxytryptamine receptor 2C (Rattus norvegicus, UniProt P08909)
Chain of 5-hydroxytryptamine receptor 2C (P08909 whole entry): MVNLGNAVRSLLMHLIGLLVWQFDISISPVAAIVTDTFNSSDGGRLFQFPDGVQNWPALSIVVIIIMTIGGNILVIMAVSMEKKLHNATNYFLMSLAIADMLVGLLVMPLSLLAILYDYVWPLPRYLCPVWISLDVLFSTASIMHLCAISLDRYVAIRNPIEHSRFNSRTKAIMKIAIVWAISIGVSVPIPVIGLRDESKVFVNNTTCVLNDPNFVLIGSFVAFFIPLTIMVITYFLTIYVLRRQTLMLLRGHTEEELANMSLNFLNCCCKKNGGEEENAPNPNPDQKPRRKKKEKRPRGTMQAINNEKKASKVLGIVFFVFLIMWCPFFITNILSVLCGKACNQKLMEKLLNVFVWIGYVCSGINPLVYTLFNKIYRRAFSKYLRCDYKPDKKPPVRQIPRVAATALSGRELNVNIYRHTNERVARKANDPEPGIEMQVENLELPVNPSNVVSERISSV

D(1B) dopamine receptor = D(1B) dopamine receptor (Homo sapiens, UniProt P21918)
[18] = biological target: Metabotropic glutamate receptor 4 (Homo sapiens, UniProt Q14833)
Chain of Metabotropic glutamate receptor 4 (Q14833 whole entry): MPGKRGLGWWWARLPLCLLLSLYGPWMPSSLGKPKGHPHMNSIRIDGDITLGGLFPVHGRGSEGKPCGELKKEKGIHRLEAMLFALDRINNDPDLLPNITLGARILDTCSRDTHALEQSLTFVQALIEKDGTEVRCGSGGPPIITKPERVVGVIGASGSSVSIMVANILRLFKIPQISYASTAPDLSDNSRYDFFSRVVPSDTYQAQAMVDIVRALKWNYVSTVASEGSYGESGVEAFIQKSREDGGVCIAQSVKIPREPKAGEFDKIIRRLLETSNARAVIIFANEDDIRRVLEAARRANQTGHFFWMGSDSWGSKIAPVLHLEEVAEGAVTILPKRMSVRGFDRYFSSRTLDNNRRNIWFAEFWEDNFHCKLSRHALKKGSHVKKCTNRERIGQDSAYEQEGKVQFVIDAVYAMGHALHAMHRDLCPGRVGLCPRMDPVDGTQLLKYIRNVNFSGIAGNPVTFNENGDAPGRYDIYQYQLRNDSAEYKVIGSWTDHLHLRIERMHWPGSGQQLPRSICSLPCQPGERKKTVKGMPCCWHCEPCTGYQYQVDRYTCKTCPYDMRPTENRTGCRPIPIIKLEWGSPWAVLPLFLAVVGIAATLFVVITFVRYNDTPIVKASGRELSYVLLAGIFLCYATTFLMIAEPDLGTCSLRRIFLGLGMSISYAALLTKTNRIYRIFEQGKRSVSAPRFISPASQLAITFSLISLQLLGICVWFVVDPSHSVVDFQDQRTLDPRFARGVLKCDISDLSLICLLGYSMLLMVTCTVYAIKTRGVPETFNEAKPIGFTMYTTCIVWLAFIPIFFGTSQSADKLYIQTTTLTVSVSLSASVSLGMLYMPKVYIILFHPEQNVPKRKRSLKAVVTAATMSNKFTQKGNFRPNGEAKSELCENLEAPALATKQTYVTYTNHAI

[19] = biological target: Metabotropic glutamate receptor 1 (Homo sapiens, UniProt Q13255)
[20] = biological target: Metabotropic glutamate receptor 2 (Homo sapiens, UniProt Q14416)
[21] = biological target: Muscarinic acetylcholine receptor M2 (Homo sapiens, UniProt P08172)
Chain of Muscarinic acetylcholine receptor M2 (P08172 whole entry): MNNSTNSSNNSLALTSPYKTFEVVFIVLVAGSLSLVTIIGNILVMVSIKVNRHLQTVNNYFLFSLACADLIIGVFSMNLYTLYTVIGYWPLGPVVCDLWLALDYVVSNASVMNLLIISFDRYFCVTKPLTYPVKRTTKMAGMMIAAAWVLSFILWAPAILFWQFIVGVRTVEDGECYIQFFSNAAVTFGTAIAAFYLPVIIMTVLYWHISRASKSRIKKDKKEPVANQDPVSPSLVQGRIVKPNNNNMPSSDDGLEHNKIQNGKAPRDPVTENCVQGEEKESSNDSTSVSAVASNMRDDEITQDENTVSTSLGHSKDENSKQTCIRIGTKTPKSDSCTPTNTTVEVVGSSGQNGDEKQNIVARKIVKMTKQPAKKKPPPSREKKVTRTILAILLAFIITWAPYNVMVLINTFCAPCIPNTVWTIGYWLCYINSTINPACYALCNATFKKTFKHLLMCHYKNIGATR

[22] = biological target: Muscarinic acetylcholine receptor M1 (Homo sapiens, UniProt P11229)
[23] = biological target: Gamma-aminobutyric acid receptor subunit alpha-1 (Rattus norvegicus, UniProt P62813)
Vasopressin V1b receptor = Vasopressin V1b receptor (Homo sapiens, UniProt P47901)
[24] = biological target: Muscarinic acetylcholine receptor M4 (Homo sapiens, UniProt P08173)
[25] = biological target: Neuronal acetylcholine receptor subunit alpha-2 (Homo sapiens, UniProt Q15822)
[26] = biological target: Neuronal acetylcholine receptor subunit alpha-3 (Homo sapiens, UniProt P32297)
D(4) dopamine receptor = D(4) dopamine receptor (Rattus norvegicus, UniProt P30729)
[27] = biological target: Sodium-dependent dopamine transporter (Bos taurus, UniProt P27922)
[28] = biological target: Glutamate receptor ionotropic, NMDA 1 (Rattus norvegicus, UniProt P35439)
[29] = biological target: Metabotropic glutamate receptor 6 (Homo sapiens, UniProt O15303)
[30] = biological target: Metabotropic glutamate receptor 8 (Homo sapiens, UniProt O00222)
[31] = biological target: Muscarinic acetylcholine receptor M5 (Homo sapiens, UniProt P08912)
Chain of Muscarinic acetylcholine receptor M5 (P08912 whole entry): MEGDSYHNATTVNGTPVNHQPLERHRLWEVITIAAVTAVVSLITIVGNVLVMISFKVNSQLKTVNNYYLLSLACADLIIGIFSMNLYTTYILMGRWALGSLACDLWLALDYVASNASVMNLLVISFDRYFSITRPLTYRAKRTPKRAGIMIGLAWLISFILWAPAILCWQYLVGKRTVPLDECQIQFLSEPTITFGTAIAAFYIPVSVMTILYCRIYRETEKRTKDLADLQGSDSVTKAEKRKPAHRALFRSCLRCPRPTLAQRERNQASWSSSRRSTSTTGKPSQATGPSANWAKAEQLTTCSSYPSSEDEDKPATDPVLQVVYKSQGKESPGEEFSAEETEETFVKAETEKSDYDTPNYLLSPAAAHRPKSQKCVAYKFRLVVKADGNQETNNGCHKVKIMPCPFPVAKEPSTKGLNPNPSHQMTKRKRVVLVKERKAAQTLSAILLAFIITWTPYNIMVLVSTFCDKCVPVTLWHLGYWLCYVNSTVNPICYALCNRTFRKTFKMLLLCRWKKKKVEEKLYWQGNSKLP

[32] = biological target: Beta-2 adrenergic receptor (Rattus norvegicus, UniProt P10608)
Vasopressin V2 receptor = Vasopressin V2 receptor (Homo sapiens, UniProt P30518)

Measured: Ki

COC(=O)[C@@H]1C[C@H](OC(C)=O)C(=O)[C@H]2[C@@]1(C)CC[C@H]1C(=O)O[C@H](c3ccoc3)C[C@]21C [2S,4aR,6a(R,7R,9S,10aS,10bR)-9-(acetyloxy)-2-(furan-3-yl)dodecahydro-6a,10b-dimethyl-4,10-dioxo-2H-naphtho[2,1-c]pyran-7-carboxylic acid methyl ester]
> 10 µM: all assays above
